Test results published in the NIST ThermoML archive (doi:10.1016/j.tca.2006.02.028).
± gives the expanded uncertainty stated by the source.

Test: excess molar enthalpy (molar enthalpy of mixing); xn = mol fraction of the nth substance listed
Conditions: 298.15 K, 101 kPa, Liquid, Titration calorimetry

excess molar enthalpy (x1 = 0.05) | excess molar enthalpy (x1 = 0.1) | excess molar enthalpy (x1 = 0.15) | excess molar enthalpy (x1 = 0.2) | excess molar enthalpy (x1 = 0.3) | excess molar enthalpy (x1 = 0.4) | excess molar enthalpy (x1 = 0.5) | excess molar enthalpy (x1 = 0.6) | excess molar enthalpy (x1 = 0.7) | excess molar enthalpy (x1 = 0.8) | excess molar enthalpy (x1 = 0.9) | excess molar enthalpy (x1 = 1) | excess molar enthalpy (x2 = 0) | SMILES
-0.0779 ± 0.000956 kcal/mol | -0.131 ± 0.00167 kcal/mol | -0.171 ± 0.00191 kcal/mol | -0.193 ± 0.00215 kcal/mol | -0.203 ± 0.00239 kcal/mol | -0.201 ± 0.00215 kcal/mol | -0.186 ± 0.00215 kcal/mol | -0.163 ± 0.00191 kcal/mol | -0.139 ± 0.00167 kcal/mol | -0.0985 ± 0.0012 kcal/mol | -0.0576 ± 0.000717 kcal/mol | 0 ± 0.000239 kcal/mol | – | CO [methanol] + O
– | – | – | – | – | – | – | – | – | – | – | – | 0 ± 0.000239 kcal/mol | O [water] + CO
